Experimental findings from patent publication US9949980B2, “Drugs to prevent HPV infection” (Wisconsin Alumni Research Foundation, priority 2008, dated 2018) are described below.

Read-outs that look alike come from different tables or passages of the source.

Data set [1] in a line: in vitro. To be noted: human.
Data set [2] relates to HPV16 pseudoviruses. Nature of the data set: microbe, parasite or virus in culture. To be noted: Human papillomavirus 16, HEK-293T, 48 h. It is filed as cell-based. Put shortly:
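Viability was read by CellTiter Glo luminescence on the same wells used for the SEAP infection read-out, after 48 hrs further incubation.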

Data set [3] relates to HPV16 pseudovirus. Nature of the data set: Luciferase assay: HPV16 pseudovirus with renilla luciferase reporter (HPV16wpA-RL). To be noted: renilla luciferase reporter behind HPV16 promoter.
Method: The protocol for the secondary screen was identical to that of the primary screen with the exception that all volumes were scaled up by a factor of four. RL activity was measured using the Renilla Luciferase Assay System (Promega).
Setting [4] is: Primary HTS Viability % Average.
[5] abbreviates: read-out: Infectivity (SEAP Activity), 3 μM HTS standard concentration, 293T cells, 48 hrs.
The mark [6] stands for this setting: read-out: Infectivity vs. viability, 3 μM HTS standard concentration, ratio infectivity/viability.
The mark [7] stands for this setting: read-out: Primary HTS SEAP vs Viability, Table 2, first pair of columns (c2).
Setting [8] is: read-out: Primary HTS SEAP vs Viability, Table 2, second pair of columns (c4).

For the compound `CCOC(=O)CCc1c(C)nc2c(C)c(-c3ccccc3)nn2c1O` [Compound 1, ethyl 3-(7-hydroxy-3,5-dimethyl-2-phenylpyrazolo[1,5-a]pyrimidin-6-yl)propanoate], the viability (in general, a read-out of living cells in per cent, often relative to untreated cells) at 52 h, 3 μM in data set [1] (setting [4]) worked out at 85%; in data set [1] (Viability (CelTiter Glow)) it was 93.4%. Moreover, the activity at 3 µM is 22.9% in data set [2] (setting [5]), 24.5% in data set [2] (setting [6]), 13.1% in data set [2] (setting [7]) and 32.6% in data set [2] (setting [8]). In data set [3], the “Luciferase assay RL % Average” value came out at 64.85%.
Take `Cc1cc(O)n2c(nc3ccccc32)c1C(=O)O` [Compound 2, 1-hydroxy-3-methylpyrido[1,2-a]benzimidazole-4-carboxylic acid]: the viability at 52 h, 3 μM in data set [1] (Viability (CelTiter Glow)) turned out to be 101%. The activity at 3 µM worked out at 19.7% in data set [2] (setting [5]), 19.6% in data set [2] (setting [6]), 13.5% in data set [2] (setting [7]) and 25.9% in data set [2] (setting [8]). For the same compound, the “Luciferase assay RL % Average” value in data set [3] is 75.09%.
Turning to `Cc1nc2ccccn2c1C(=O)NC(C)c1ccccc1` (stereo not shown) [Compound 3, 2-methyl-N-(1-phenylethyl)imidazo[1,2-a]pyridine-3-carboxamide], the figures for the viability at 52 h, 3 μM in data set [1] (setting [4]) and in data set [1] (Viability (CelTiter Glow)) were 105% and 103%, respectively. Besides, the activity at 3 µM in data set [2] (setting [5]) was found to be 20.8%; in data set [2] (setting [6]), 20.3%; in data set [2] (setting [7]), 18.7%; in data set [2] (setting [8]), 23%. In addition, in data set [3], the “Luciferase assay RL % Average” value is reported as 71.67%.
On to `Cc1ccccc1C(=O)N1CC(C)CC(C)C1` (stereo not shown) [Compound 5, 3,5-dimethyl-1-(2-methylbenzoyl)piperidine], for which the viability at 52 h, 3 μM in data set [1] (setting [4]) is 102%; in data set [1] (Viability (CelTiter Glow)), 108%. Besides, the activity at 3 µM came to 22.9% in data set [2] (setting [5]), 21.2% in data set [2] (setting [6]), 29.5% in data set [2] (setting [7]) and 16.2% in data set [2] (setting [8]). Further, the “Luciferase assay RL % Average” value in data set [3] is 102.39%.
As for `CCN1C(=O)c2cccc3c(NC(=O)c4ccc(S(=O)(=O)N(C)C)cc4)ccc1c23` [Compound 6, 4-[(dimethylamino)sulfonyl]-N-(1-ethyl-2-oxo-1,2-dihydrobenzo[cd]indol-6-yl)benzamide], the viability at 52 h, 3 μM in data set [1] (Viability (CelTiter Glow)) turned out to be 101%. Besides, the activity at 3 µM was 26.8% in data set [2] (setting [5]), 26.6% in data set [2] (setting [6]), 24.4% in data set [2] (setting [7]) and 29.3% in data set [2] (setting [8]). Besides, the “Luciferase assay RL % Average” value in data set [3] is 71.67%.
Regarding `Cc1ccccc1OCCc1c(C)n[nH]c1C` [Compound 7, 3,5-dimethyl-4-[2-(2-methylphenoxy)ethyl]-1H-pyrazole], the viability at 52 h, 3 μM in data set [1] (Viability (CelTiter Glow)) turned out to be 92.9%. Further, the activity at 3 µM came out at 36.9% in data set [2] (setting [5]), 39.7% in data set [2] (setting [6]), 32% in data set [2] (setting [7]) and 41.8% in data set [2] (setting [8]). Besides, the “Luciferase assay RL % Average” value in data set [3] worked out at 68.26%.
Consider `O=C(N(c1cccc(C(F)(F)F)c1)C1C=CS(=O)(=O)C1)C(F)(F)F` (stereo not shown) [Compound 8, N-(1,1-dioxido-2,3-dihydro-3-thienyl)-2,2,2-trifluoro-N-[3-(trifluoromethyl)phenyl]acetamide], for which the viability at 52 h, 3 μM came to 96.4% in data set [1] (setting [4]) and 94.4% in data set [1] (Viability (CelTiter Glow)). Also, the activity at 3 µM in data set [2] (setting [5]) turned out to be 27.7%; in data set [2] (setting [6]) it was 29.4%; in data set [2] (setting [7]), 37.3%; in data set [2] (setting [8]) it was 18.1%. The “Luciferase assay RL % Average” value in data set [3] turned out to be 177.47%.
Take `CN1C(=O)C(c2c[nH]c3ccccc23)(c2c[nH]c3ccccc23)c2ccccc21` [Compound 10, 1′-methyl-1H,1″H-3,3′:3′,3″-terindol-2′(1′H)-one]: in data set [1] (Viability (CelTiter Glow)), the viability at 52 h, 3 μM turned out to be 105%. For the same compound, the activity at 3 µM in data set [2] (setting [5]) was determined as 38.8%; in data set [2] (setting [6]) it was 37%; in data set [2] (setting [7]) it was 34.4%; in data set [2] (setting [8]), 43.2%. Also, the “Luciferase assay RL % Average” value in data set [3] is 30.72%.
`O=C1NC(=S)SC1=Cc1ccc(Oc2ccc([N+](=O)[O-])cn2)cc1` [Compound 12, 5-{4-[(5-nitro-2-pyridinyl)oxy]benzylidene)-2-thioxo-1,3-thiazolidin-4-one]: the viability at 52 h, 3 μM in data set [1] (Viability (CelTiter Glow)) amounted to 132%. For the same compound, the activity at 3 µM worked out at 28.3% in data set [2] (setting [5]), 21.5% in data set [2] (setting [6]), 39.4% in data set [2] (setting [7]) and 17.2% in data set [2] (setting [8]). Besides, the “Luciferase assay RL % Average” value in data set [3] is 105.80%.
In the case of `O=S1(=O)C=CC(Nc2cccc(C(F)(F)F)c2)C1` (stereo not shown) [Compound 16, (1,1-dioxido-2,3-dihydro-3-thienyl)[3-(trifluoromethyl)phenyl]amine], the viability at 52 h, 3 μM in data set [1] (setting [4]) came to 98.2%; in data set [1] (Viability (CelTiter Glow)), 92.9%. The activity at 3 µM in data set [2] (setting [5]) amounted to 28.4%; in data set [2] (setting [6]), 30.6%; in data set [2] (setting [7]), 36.1%; in data set [2] (setting [8]), 20.6%. In data set [3], the “Luciferase assay RL % Average” value worked out at 146.76%.
Regarding `COc1cccc(NC(=O)c2ccc(C)c([N+](=O)[O-])c2)c1` [Compound 17, N-(3-methoxyphenyl)-4-methyl-3-nitrobenzamide], in data set [1] (Viability (CelTiter Glow)), the viability at 52 h, 3 μM was 86.8%. The activity at 3 µM in data set [2] (setting [5]) is 43%; in data set [2] (setting [6]), 49.6%; in data set [2] (setting [7]) it was 32.9%; in data set [2] (setting [8]), 53.2%. In data set [3], the “Luciferase assay RL % Average” value turned out to be 92.15%.
As to `CC(O)c1cccc(NC(=O)c2cc3n(n2)C(C(F)(F)F)CC(c2ccc(F)cc2)N3)c1` (stereo not shown) [Compound 19, 5-(4-fluorophenyl)-N-[3-(1-hydroxyethyl)phenyl]-7-(trifluoromethyl)-4,5,6,7-tetrahydropyrazolo[1,5-a]pyrimidine-2-carboxamide], the viability at 52 h, 3 μM in data set [1] (setting [4]) was 116%; in data set [1] (Viability (CelTiter Glow)) it was 107%. In addition, the activity at 3 µM turned out to be 40.8% in data set [2] (setting [5]), 37.9% in data set [2] (setting [6]), 50% in data set [2] (setting [7]) and 31.5% in data set [2] (setting [8]). Moreover, in data set [3], the “Luciferase assay RL % Average” value worked out at 88.74%.
In the case of `Cc1cccc(NC(=O)Nc2ccc(C(C)(C)C)cc2)n1` [Compound 21, 1-(4-tert-butylphenyl)-3-(6-methylpyridin-2-yl)urea], the viability at 52 h, 3 μM in data set [1] (setting [4]) and in data set [1] (Viability (CelTiter Glow)) was 92.8% in each case. The activity at 3 µM in data set [2] (setting [5]) is 43.8%; in data set [2] (setting [6]), 47.2%; in data set [2] (setting [7]) it was 34.2%; in data set [2] (setting [8]), 53.5%. In data set [3], the “Luciferase assay RL % Average” value came to 109.22%.
Regarding `Oc1ccccc1C=NNc1nc2c(Cl)cc(Cl)cc2s1` [RF 02710, 2-hydroxybenzaldehyde N-(4,6-dichloro-1,3-benzothiazol-2-yl)hydrazone], the viability at 52 h, 3 μM in data set [1] (Viability (CelTiter Glow)) is 94.9%. In addition, the activity at 3 µM in data set [2] (setting [5]) was 34.6%; in data set [2] (setting [6]) it was 36.4%.
The matching figures for `ON=Cc1ccc(Cl)s1` [SEW 06085, 5-chlorothiophene-2-carbaldehyde oxime]: 103%, 54.9% and 53.2%.
